# Experimental data published in ChEMBL document CHEMBL5036330, “Discovery of 8,9-seco-ent-Kaurane Diterpenoids as Potential Leads for the Treatment of Triple-Negative Breast Cancer” (J Med Chem, 2021).
# Calls of active or inactive are those of the source. The rule behind the calls is not given here.
# Legend:
# [1] = system: MDA-MB-468; assay: Induction of apoptosis in human MDA-MB-468 cells assessed as decrease in Bcl2/Bax ratio at 1 to 5 uM measured after 24 hrs by Western blot analysis; format: functional, cell-based; details: dose 1-5 µM
# [2] = system: MDA-MB-231; assay: Inhibition of Akt phosphorylation in human MDA-MB-231 cells measured after 24 hrs by Western blot analysis; format: cell-based
# [3] = system: MCF7; assay: Cytotoxicity against human MCF7 cells assessed as reduction in cell viability incubated for 96 hrs by MTT method; format: functional, cell-based; details: MCF7, 96 h
# [4] = system: MDA-MB-231; assay: Induction of apoptosis in human MDA-MB-231 cells assessed as late apoptotic cells at 2 uM measured after 24 hrs by Annexin V/Propidium iodide stain based Flow cytometry (reference value: 2.78%); format: functional
# [5] = system: MDA-MB-231; assay: Induction of mitochondrial depolarization in human MDA-MB-231 cells assessed as monomers at 5 uM in dark by JC10 staining based fluorescence microscopy (reference value: 5.6%); format: functional
# [6] = system: MDA-MB-468; assay: Antiproliferative activity against human MDA-MB-468 cells assessed as supression of long term proliferative capacity measured for 2 weeks by Colony formation assay; format: functional, cell-based; details: dose 0.05-0.2 µM
# [7] = system: MDA-MB-468; assay: Induction of apoptosis in human MDA-MB-468 cells assessed as late apoptotic cells at 1 uM measured after 24 hrs by Annexin V/Propidium iodide stain based Flow cytometry (reference value: 3.98%); format: functional
# [8] = system: MDA-MB-468; assay: Induction of cell cycle arrest in human MDA-MB-468 cells assessed as accumulation of cells at S phase at 1 uM measured after 24 hrs by flow cytometry (reference value: 46.9%); format: functional
# [9] = system: MDA-MB-231; assay: Induction of cell cycle arrest in human MDA-MB-231 cells assessed as accumulation of cells at G1 phase at 5 uM measured after 24 hrs by flow cytometry (reference value: 47.7%); format: functional
# [10] = system: MDA-MB-468; assay: Induction of cell cycle arrest in human MDA-MB-468 cells assessed as accumulation of cells at S phase at 5 uM measured after 24 hrs by flow cytometry (reference value: 46.9%); format: functional
# [11] = Toxicity in NOD/SCID mouse assessed as cytotoxicity in lung at 10 mg/kg, ip treated for 33 days by H&E staining analysis; format: organism-based; details: in vivo, 792 h, time 33 day
# [12] = system: MDA-MB-231; assay: Induction of apoptosis in human MDA-MB-231 cells assessed as early apoptotic cells at 5 uM measured after 24 hrs by Annexin V/Propidium iodide stain based Flow cytometry (reference value: 3.34%); format: functional
# [13] = system: MDA-MB-231; assay: Effect on Akt expression in human MDA-MB-231 cells measured at 1 to 5 uM after 24 hrs by Western blot analysis; format: functional, cell-based; details: dose 1-5 µM
# [14] = system: MDA-MB-468; assay: Induction of cell cycle arrest in human MDA-MB-468 cells assessed as accumulation of cells at S phase at 2 uM measured after 24 hrs by flow cytometry (reference value: 46.9%); format: functional
# [15] = system: MDA-MB-231; assay: Antiinvasive activity against in human MDA-MB-231 cells assessed as reduction in MMP9 expression measured upto 72 hrs by Western blot analysis; format: functional, cell-based; details: dose 0.1-0.2 µM, time hrs <=72
# [16] = system: MDA-MB-231; assay: Antiproliferative activity against human MDA-MB-231 cells assessed as supression of long term proliferative capacity measured after 2 weeks by Colony formation assay; format: functional, cell-based; details: dose 0.05-0.2 µM
# [17] = system: MDA-MB-468; assay: Induction of mitochondrial depolarization in human MDA-MB-468 cells assessed as monomers at 5 uM in dark by JC10 staining based fluorescence microscopy (reference value: 8.4%); format: functional
# [18] = system: MDA-MB-468; assay: Induction of apoptosis in human MDA-MB-468 cells assessed as early apoptotic cells at 5 uM measured after 24 hrs by Annexin V/Propidium iodide stain based Flow cytometry (reference value: 7.98%); format: functional
# [19] = biological target: RAC-alpha serine/threonine-protein kinase (Homo sapiens) (UniProt P31749); assay: Binding affinity to Akt1 in human MDA-MB-468 cells assessed as shifted melting curve at 2 uM by CETSA assay; format: cell-based
# [20] = system: MDA-MB-468; assay: Induction of mitochondrial depolarization in human MDA-MB-468 cells assessed as monomers at 2 uM in dark by JC10 staining based fluorescence microscopy (reference value: 8.4%); format: functional
# [21] = Toxicity in NOD/SCID mouse assessed as cytotoxicity in liver at 10 mg/kg, ip treated for 33 days by H&E staining analysis; format: organism-based; details: in vivo, 792 h, time 33 day
# [22] = system: MDA-MB-468; assay: Induction of mitochondrial depolarization in human MDA-MB-468 cells assessed as monomers at 1 uM in dark by JC10 staining based fluorescence microscopy (reference value: 8.4%); format: functional
# [23] = system: MDA-MB-231; assay: Induction of autophagy in human MDA-MB-231 cells assessed as cleaved PARP at 1 to 5 uM incubated for 24 hrs in presence of chloroquine by Western blot analysis relative to control; format: functional, cell-based; details: dose 1-5 µM
# [24] = biological target: Serine/threonine-protein kinase mTOR (Homo sapiens) (UniProt P42345); assay: Inhibition of mTOR phosphorylation in human MDA-MB-231 cells measured after 24 hrs by Western blot analysis; format: cell-based; details: dose 1-5 µM
# [25] = system: MDA-MB-468; assay: Anticancer activity in human MDA-MB-468 cells xenografted mouse model assessed as tumor growth inhibition at 10 mg/kg, ip treated for 33 days relative to control; format: functional, organism-based; details: time 33.0 day
# [26] = system: MDA-MB-468; assay: Induction of cell cycle arrest in human MDA-MB-468 cells assessed as accumulation of cells at G1 phase at 5 uM measured after 24 hrs by flow cytometry (reference value: 26.6%); format: functional
# [27] = system: MDA-MB-231; assay: Induction of mitochondrial depolarization in human MDA-MB-231 cells assessed as aggregates at 1 uM in dark by JC10 staining based fluorescence microscopy (reference value: 94.4%); format: functional
# [28] = system: MDA-MB-468; assay: Inhibition of Akt phosphorylation in human MDA-MB-468 cells measured after 24 hrs by Western blot analysis; format: cell-based; details: dose 1-5 µM
# [29] = system: MDA-MB-231; assay: Induction of cell cycle arrest in human MDA-MB-231 cells assessed as accumulation of cells at S phase at 5 uM measured after 24 hrs by flow cytometry (reference value: 32.2%); format: functional
# [30] = system: MDA-MB-231; assay: Antiinvasive activity against in human MDA-MB-231 cells assessed as reduction in MMP2 expression measured upto 72 hrs by Western blot analysis; format: functional, cell-based; details: dose 0.1-0.2 µM, time hrs <=72
# [31] = system: MDA-MB-231; assay: Effect on PI3K expression in human MDA-MB-231 cells measured at 1 to 5 uM after 24 hrs by Western blot analysis; format: functional, cell-based; details: dose 1-5 µM
# [32] = system: MDA-MB-468; assay: Induction of autophagy in human MDA-MB-468 cells assessed as increase in ATG7 expression at 1 to 5 uM incubated for 24 hrs by Western blot analysis; format: functional, cell-based; details: dose 1-5 µM
# [33] = system: MDA-MB-231; assay: Induction of apoptosis in human MDA-MB-231 cells assessed as increase in cleaved caspase 3 at 1 to 5 uM measured after 24 hrs by Western blot analysis; format: functional, cell-based; details: dose 1-5 µM
# [34] = system: MDA-MB-468; assay: Induction of mitochondrial depolarization in human MDA-MB-468 cells assessed as aggregates at 5 uM in dark by JC10 staining based fluorescence microscopy (reference value: 91.6%); format: functional
# [35] = system: MDA-MB-468; assay: Induction of autophagy in human MDA-MB-468 cells assessed as elimination of p62 at 1 to 5 uM incubated for 24 hrs by Western blot analysis; format: functional, cell-based; details: dose 1-5 µM
# [36] = system: MDA-MB-231; assay: Induction of cell cycle arrest in human MDA-MB-231 cells assessed as accumulation of cells at G1 phase at 2 uM measured after 24 hrs by flow cytometry (reference value: 47.7%); format: functional
# RAC-alpha serine/threonine-protein kinase (Homo sapiens), sequence (P31749 whole entry): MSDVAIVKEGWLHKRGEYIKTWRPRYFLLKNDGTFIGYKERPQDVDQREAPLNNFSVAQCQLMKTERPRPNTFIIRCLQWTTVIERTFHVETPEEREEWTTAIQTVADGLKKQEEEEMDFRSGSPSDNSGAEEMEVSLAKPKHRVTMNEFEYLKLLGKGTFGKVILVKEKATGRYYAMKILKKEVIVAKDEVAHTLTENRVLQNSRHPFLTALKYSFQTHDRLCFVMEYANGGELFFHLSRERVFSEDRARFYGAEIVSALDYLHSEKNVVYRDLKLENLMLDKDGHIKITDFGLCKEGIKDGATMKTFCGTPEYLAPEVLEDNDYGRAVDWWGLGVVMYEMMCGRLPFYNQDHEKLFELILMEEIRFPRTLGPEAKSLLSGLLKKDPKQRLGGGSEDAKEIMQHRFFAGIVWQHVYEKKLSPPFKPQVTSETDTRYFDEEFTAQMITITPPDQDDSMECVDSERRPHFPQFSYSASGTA
structure (smiles),measurement,setting,value
C=C1C(=O)C2=C[C@H]1CCC(=O)[C@]1(C)[C@H](O)CCC(C)(C)[C@H]1C[C@H]2O,Activity,[1],Active
same,inhibition,[2],Active
same,IC50,[3],113 nM
same,Activity,[4],13.6%
same,Activity,[5],76.2%
same,Activity,[6],Active
same,Activity,[7],10.1%
same,Activity,[8],27.9%
same,Activity,[9],27.5%
same,Activity,[10],24.3%
same,Activity,[11],Non-Toxic
same,Activity,[12],18%
same,Activity,[13],inactive
same,Activity,[14],27.6%
same,Activity,[15],Active
same,Activity,[16],Active
same,Activity,[17],86.6%
same,Activity,[18],21%
same,Activity,[19],Active
same,Activity,[20],78.5%
same,Activity,[21],Non-Toxic
same,Activity,[22],38.4%
same,Activity,[23],inactive
same,inhibition,[24],Active
same,Activity,[25],Active
same,Activity,[26],16.1%
same,Activity,[27],81.1%
same,inhibition,[28],Active
same,Activity,[29],35.1%
same,Activity,[30],Active
same,Activity,[31],inactive
same,Activity,[32],Active
same,Activity,[33],Active
same,Activity,[34],13.3%
same,Activity,[35],Active
same,Activity,[36],33.8%
